In PMC7719162, “Positioning of an unprecedented spiro[5.5]undeca ring system into kinase inhibitor space” (Scientific Reports, 2020):
Like-named read-outs stand apart in the source and are kept apart here.

Columns and labels:
JNK2 [1] = biological target: T1, JNK2 (Homo sapiens, UniProt P45984); conditions: cited from earlier work
T1 construct: purchased Reaction Biology Corp

ROCK2 = biological target: T2, ROCK2 (Homo sapiens, UniProt O75116); conditions: cited from earlier work
T2 construct: purchased Reaction Biology Corp

ZIPK/DAPK3 = biological target: T3, ZIPK/DAPK3 (Homo sapiens, UniProt O43293); conditions: cited from earlier work
T3 construct: purchased Reaction Biology Corp
T3 sequence (O43293 whole entry): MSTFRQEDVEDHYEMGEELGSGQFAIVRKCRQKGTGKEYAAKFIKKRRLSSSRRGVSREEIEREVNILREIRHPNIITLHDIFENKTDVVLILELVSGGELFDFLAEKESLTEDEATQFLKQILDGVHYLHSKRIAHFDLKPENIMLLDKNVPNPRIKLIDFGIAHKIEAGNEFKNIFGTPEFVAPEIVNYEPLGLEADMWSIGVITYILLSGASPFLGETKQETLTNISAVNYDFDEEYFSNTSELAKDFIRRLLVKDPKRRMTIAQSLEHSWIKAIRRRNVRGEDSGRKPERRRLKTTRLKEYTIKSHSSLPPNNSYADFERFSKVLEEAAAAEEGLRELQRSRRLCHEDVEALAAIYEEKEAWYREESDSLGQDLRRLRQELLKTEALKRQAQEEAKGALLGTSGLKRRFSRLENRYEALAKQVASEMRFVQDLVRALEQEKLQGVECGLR

Haspin = biological target: T4, Haspin (Homo sapiens, UniProt Q8TF76); conditions: cited from earlier work
T4 construct: purchased Reaction Biology Corp
T4 sequence (Q8TF76 1-798): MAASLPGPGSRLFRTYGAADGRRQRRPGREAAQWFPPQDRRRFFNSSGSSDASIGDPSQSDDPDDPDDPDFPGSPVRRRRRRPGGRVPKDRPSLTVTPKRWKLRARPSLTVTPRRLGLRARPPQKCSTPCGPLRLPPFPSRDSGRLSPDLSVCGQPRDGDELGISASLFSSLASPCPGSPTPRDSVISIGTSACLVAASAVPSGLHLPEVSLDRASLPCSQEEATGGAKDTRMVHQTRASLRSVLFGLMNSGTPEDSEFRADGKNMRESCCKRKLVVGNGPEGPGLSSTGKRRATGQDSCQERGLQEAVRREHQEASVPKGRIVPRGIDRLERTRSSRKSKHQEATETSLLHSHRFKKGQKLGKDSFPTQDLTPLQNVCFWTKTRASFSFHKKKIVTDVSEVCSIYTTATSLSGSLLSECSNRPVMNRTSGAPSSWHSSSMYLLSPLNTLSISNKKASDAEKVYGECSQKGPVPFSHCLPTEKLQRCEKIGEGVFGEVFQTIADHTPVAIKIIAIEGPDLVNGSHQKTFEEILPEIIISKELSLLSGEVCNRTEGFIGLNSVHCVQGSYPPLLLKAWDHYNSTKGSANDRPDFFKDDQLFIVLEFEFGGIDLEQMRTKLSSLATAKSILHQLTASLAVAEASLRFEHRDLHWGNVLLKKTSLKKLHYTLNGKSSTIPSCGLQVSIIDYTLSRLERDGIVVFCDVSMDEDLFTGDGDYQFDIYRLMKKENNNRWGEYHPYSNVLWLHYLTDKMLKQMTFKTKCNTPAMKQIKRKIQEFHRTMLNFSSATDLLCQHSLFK

AMPK(A2/B1/G1) [2] = biological target: T5, AMPK(A2/B1/G1) (Homo sapiens, UniProt P54619+P54646+Q9Y478); assay: Kinase panel assay (radiolabelled); format: biochemical; conditions: 30 μM compound, ATP 10 μM; duplicates Data 1/Data 2; read-out: % Enzyme Activity (relative to DMSO controls)
T5 construct: purchased Reaction Biology Corp

AMPK(A2/B1/G1) [3] = biological target: T6, AMPK(A2/B1/G1) (Homo sapiens, UniProt P54646); assay: Kinase panel assay (radiolabelled); format: biochemical; conditions: 30 μM compound, ATP 10 μM; duplicates Data 1/Data 2
T6 construct: purchased Reaction Biology Corp

PKN2/PRK2 = biological target: T7, PKN2/PRK2 (Homo sapiens, UniProt Q16513); assay: Kinase panel assay (radiolabelled); format: biochemical; conditions: ATP 10 μM
T7 construct: purchased Reaction Biology Corp
T7 sequence (Q16513 whole entry): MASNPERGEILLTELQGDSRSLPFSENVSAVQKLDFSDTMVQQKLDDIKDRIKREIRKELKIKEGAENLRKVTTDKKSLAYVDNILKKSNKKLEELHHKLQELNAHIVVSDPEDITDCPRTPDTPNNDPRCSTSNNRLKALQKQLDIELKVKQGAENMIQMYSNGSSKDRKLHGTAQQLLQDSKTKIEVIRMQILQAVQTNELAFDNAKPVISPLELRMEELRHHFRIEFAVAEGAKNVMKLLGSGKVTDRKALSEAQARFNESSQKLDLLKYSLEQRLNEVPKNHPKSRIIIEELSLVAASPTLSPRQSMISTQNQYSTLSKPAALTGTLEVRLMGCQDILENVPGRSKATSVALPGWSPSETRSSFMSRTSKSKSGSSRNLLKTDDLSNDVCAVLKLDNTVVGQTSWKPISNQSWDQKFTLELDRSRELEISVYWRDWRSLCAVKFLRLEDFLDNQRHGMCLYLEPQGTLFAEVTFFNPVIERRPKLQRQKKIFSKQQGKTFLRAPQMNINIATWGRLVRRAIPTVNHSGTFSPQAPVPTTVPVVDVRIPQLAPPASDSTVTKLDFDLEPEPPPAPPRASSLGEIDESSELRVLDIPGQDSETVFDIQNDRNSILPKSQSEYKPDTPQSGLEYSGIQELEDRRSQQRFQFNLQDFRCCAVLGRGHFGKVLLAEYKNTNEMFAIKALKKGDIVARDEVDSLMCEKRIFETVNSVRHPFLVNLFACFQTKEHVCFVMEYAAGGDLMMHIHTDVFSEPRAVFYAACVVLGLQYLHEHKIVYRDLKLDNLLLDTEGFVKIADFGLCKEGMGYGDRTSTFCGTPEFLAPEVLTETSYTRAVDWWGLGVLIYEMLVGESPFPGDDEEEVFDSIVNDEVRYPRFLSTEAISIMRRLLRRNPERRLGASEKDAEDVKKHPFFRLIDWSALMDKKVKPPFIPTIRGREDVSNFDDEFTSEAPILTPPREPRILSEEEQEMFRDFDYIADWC

TRKA-TPM3 = TRKA-TPM3 (Homo sapiens, UniProt P04629); assay: Kinase panel assay (radiolabelled); format: biochemical; conditions: 30 μM compound, ATP 10 μM, duplicates Data 1/Data 2
TRKA-TPM3, sequence (P04629 399-796): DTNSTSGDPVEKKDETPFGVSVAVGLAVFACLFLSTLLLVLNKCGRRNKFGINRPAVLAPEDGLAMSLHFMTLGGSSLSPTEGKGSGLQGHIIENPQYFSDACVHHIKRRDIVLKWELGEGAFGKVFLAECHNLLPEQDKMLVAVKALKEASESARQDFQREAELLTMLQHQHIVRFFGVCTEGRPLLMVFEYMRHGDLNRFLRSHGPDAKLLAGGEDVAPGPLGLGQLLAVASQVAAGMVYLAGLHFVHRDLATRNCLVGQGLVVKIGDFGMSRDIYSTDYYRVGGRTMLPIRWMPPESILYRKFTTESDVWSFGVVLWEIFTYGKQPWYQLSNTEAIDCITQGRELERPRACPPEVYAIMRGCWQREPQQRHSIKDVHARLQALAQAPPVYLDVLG
TRKA-TPM3, sequence (P06753 2-258 partner): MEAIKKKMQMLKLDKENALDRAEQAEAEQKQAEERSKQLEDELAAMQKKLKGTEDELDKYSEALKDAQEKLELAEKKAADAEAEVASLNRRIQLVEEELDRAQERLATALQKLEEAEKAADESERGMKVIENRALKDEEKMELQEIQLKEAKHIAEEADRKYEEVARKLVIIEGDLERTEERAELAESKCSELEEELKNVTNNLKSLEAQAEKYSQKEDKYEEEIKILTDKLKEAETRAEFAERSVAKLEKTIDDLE

JNK3 = biological target: T8, JNK3 (Homo sapiens, UniProt P53779); assay: Kinase panel assay (radiolabelled); format: biochemical; conditions: ATP 10 μM
T8 construct: purchased Reaction Biology Corp
T8 sequence (P53779 whole entry): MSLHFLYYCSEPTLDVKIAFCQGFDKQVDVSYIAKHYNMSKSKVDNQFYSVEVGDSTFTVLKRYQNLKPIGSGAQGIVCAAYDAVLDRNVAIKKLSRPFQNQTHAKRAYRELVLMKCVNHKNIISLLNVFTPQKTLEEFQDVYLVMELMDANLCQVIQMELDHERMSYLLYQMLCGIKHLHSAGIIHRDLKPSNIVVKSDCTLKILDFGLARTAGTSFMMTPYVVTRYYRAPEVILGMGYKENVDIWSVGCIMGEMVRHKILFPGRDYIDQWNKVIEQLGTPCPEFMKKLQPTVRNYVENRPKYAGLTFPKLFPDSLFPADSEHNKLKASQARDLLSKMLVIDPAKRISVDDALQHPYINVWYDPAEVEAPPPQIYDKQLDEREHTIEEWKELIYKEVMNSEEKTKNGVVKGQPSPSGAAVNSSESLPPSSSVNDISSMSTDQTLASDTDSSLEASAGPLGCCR

JNK2 [4] = biological target: T1, JNK2; assay: Kinase panel assay (radiolabelled); format: biochemical; conditions: ATP 10 μM
STK25/YSK1 = biological target: T9, STK25/YSK1 (Homo sapiens, UniProt O00506); assay: Kinase panel assay (radiolabelled); format: biochemical; conditions: ATP 10 μM
T9 construct: purchased Reaction Biology Corp
T9 sequence (O00506 whole entry): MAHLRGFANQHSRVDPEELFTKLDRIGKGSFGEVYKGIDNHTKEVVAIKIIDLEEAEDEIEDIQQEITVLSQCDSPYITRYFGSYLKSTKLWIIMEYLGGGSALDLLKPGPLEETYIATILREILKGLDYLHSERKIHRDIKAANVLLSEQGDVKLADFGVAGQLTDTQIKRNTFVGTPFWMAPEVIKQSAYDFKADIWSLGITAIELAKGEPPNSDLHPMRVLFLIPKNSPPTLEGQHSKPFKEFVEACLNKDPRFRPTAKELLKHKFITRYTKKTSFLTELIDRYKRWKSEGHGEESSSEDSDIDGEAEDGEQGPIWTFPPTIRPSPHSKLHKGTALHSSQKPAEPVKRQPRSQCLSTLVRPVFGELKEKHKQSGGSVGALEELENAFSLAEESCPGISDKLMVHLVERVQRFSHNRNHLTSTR

RIPK5 = biological target: T10, RIPK5 (Homo sapiens, UniProt Q6XUX3); assay: Kinase panel assay (radiolabelled); format: biochemical; conditions: ATP 10 μM
T10 construct: purchased Reaction Biology Corp
T10 sequence (Q6XUX3 1-929): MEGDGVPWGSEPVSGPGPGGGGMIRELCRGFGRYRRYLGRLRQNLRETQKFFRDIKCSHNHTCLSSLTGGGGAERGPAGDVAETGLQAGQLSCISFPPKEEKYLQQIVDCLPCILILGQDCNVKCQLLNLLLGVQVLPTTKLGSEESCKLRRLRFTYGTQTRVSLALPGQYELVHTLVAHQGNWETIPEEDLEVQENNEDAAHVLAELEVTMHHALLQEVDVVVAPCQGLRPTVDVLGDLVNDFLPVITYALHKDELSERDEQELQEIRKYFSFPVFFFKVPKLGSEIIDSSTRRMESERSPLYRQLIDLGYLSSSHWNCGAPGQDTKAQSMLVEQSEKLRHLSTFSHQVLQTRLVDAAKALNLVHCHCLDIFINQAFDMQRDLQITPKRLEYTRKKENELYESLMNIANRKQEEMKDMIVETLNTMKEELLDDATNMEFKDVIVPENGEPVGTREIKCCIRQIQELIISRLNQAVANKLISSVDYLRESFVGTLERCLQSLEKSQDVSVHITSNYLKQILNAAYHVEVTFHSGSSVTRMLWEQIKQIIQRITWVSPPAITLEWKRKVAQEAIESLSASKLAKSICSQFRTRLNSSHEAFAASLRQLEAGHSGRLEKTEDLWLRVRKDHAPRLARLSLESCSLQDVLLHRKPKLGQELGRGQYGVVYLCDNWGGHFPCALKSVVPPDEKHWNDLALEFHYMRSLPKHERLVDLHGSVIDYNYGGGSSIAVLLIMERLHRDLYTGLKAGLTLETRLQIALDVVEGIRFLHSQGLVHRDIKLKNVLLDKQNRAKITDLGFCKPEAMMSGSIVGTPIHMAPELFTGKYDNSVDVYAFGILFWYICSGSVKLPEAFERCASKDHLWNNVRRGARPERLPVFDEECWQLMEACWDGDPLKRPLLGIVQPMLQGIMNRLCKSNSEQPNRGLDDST

AMPK(A2/B2/G1) [5] = biological target: T11, AMPK(A2/B2/G1) (Homo sapiens, UniProt O43741+P54619+P54646); assay: Kinase panel assay (radiolabelled); format: biochemical; conditions: 30 μM compound, ATP 10 μM; duplicates Data 1/Data 2; read-out: % Enzyme Activity (relative to DMSO controls)
T11 construct: purchased Reaction Biology Corp

AMPK(A2/B2/G1) [6] = biological target: T12, AMPK(A2/B2/G1) (Homo sapiens, UniProt P54646); assay: Kinase panel assay (radiolabelled); format: biochemical; conditions: 30 μM compound, ATP 10 μM; duplicates Data 1/Data 2
T12 construct: purchased Reaction Biology Corp

TRKA-TPR = TRKA-TPR (Homo sapiens, UniProt P04629); assay: biochemical; conditions: 30 μM compound, ATP 10 μM, duplicates Data 1/Data 2
TRKA-TPR, sequence (P04629 399-796): as the sequence (P04629 399-796) above
TRKA-TPR, sequence (P12270 1-192 partner): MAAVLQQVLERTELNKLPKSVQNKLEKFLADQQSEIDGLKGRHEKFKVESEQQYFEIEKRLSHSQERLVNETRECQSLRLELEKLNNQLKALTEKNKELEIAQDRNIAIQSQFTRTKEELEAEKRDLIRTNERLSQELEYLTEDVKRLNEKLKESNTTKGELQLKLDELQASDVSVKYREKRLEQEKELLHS

PI3Kg (p110g) = biological target: T13, PI3Kg (p110g) (Homo sapiens, UniProt P48736); assay: Kinase panel assay (lipid kinase); format: biochemical; conditions: 30 μM compound, ATP 10 μM, duplicates Data 1/Data 2
T13 construct: purchased Reaction Biology Corp
T13 sequence (P48736 whole entry): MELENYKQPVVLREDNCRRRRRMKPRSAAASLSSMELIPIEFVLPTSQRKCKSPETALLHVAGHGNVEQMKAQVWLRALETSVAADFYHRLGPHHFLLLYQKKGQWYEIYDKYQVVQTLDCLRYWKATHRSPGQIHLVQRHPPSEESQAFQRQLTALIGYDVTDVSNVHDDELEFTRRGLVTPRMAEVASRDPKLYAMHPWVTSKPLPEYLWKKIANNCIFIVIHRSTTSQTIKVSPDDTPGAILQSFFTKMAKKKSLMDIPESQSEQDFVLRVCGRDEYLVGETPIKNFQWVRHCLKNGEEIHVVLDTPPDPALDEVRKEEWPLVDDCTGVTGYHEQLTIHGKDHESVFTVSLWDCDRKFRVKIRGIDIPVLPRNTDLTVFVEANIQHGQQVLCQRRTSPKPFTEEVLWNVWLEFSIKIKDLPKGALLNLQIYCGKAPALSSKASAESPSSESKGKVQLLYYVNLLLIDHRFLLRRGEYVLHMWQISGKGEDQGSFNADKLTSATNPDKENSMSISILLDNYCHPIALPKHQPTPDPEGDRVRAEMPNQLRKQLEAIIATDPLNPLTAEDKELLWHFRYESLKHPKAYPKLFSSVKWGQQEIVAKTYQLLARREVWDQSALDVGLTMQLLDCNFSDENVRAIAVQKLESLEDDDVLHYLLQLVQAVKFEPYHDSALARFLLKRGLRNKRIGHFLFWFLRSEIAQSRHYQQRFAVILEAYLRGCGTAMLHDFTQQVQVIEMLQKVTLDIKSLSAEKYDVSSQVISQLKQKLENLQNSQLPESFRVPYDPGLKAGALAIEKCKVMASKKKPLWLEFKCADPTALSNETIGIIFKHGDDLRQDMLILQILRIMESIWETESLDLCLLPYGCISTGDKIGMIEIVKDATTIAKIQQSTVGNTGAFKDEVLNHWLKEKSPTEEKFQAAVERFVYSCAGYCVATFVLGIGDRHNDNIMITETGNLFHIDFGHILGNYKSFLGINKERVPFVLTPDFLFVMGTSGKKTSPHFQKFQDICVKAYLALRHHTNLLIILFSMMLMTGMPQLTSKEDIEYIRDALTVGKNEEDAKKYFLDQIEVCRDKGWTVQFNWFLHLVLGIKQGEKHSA

[7] = 30 μM compound, duplicates Data 1/Data 2
[8] = 30 μM compound, duplicates Data 1/Data 2, read-out: % Enzyme Activity (relative to DMSO controls)
[9] = 30 μM, average ± SD, read-out: % Residual Activity at 30 μM
[10] = read-out: % Enzyme Activity (relative to DMSO controls)

T1 sequence (P45984 whole entry): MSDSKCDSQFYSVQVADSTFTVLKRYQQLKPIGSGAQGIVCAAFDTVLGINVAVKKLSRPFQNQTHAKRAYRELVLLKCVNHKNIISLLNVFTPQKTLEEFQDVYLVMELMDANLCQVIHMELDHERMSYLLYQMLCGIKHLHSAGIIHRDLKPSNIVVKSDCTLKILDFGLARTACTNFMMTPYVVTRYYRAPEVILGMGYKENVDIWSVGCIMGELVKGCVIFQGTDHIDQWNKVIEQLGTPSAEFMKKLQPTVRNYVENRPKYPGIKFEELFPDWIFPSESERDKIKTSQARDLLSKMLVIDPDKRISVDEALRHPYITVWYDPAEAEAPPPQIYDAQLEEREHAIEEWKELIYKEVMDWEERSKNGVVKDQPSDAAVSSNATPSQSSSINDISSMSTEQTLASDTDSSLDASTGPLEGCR

## O=C1C=CC2(C=C1)OCC(Cc1cc(C(F)(F)F)cc(C(F)(F)F)c1)C(=O)N2c1ccccc1 (racemic) [1c]
JNK2 [1]
  % Residual Activity at 30 μM: 58.3 ± 0.7%
ROCK2
  % Residual Activity at 30 μM: 103.9 ± 2.4%
ZIPK/DAPK3
  % Residual Activity at 30 μM: 101.8 ± 0.8%
Haspin
  % Residual Activity at 30 μM: 66.4 ± 0.5%

## O=C1C=CC2(C=C1)OCC(Cc1cn(-c3cccc(Cl)c3)nn1)C(=O)N2c1ccccc1 (centres unmarked) [2d, 3-((1-(3-Chlorophenyl)-1H-1,2,3-triazol-4-yl)methyl)-5-phenyl-1-oxa-5-azaspiro[5.5]undeca-7,10-diene-4,9-dione]
AMPK(A2/B1/G1) [2]
  remaining activity at 30 µM: 50.8%
AMPK(A2/B1/G1) [3]
  % Enzyme Activity (relative to DMSO controls): 47.50%
PKN2/PRK2; [7]
  % Enzyme Activity (relative to DMSO controls): 97.21%
PKN2/PRK2; [8]
  remaining activity at 30 µM: 102%
PKN2/PRK2; [9]
  remaining activity at 30 µM: 99.5 ± 3.3%
TRKA-TPM3
  % Enzyme Activity (relative to DMSO controls): 95.56%
TRKA-TPM3; [10]
  remaining activity at 30 µM: 98.2%
JNK3; [7]
  % Enzyme Activity (relative to DMSO controls): 95.42%
JNK3; [8]
  remaining activity at 30 µM: 95.5%
JNK3; [9]
  remaining activity at 30 µM: 95.4 ± 0.1%
JNK2 [4]; [7]
  % Enzyme Activity (relative to DMSO controls): 79.67%
JNK2 [4]; [8]
  remaining activity at 30 µM: 80.3%
JNK2 [4]; [9]
  remaining activity at 30 µM: 80 ± 0.4%
STK25/YSK1; [7]
  % Enzyme Activity (relative to DMSO controls): 61.07%
STK25/YSK1; [8]
  remaining activity at 30 µM: 63.3%
STK25/YSK1; [9]
  remaining activity at 30 µM: 62.2 ± 1.6%
RIPK5; [7]
  % Enzyme Activity (relative to DMSO controls): 83.85%
RIPK5; [8]
  remaining activity at 30 µM: 86.1%
RIPK5; [9]
  remaining activity at 30 µM: 85 ± 1.6%
AMPK(A2/B2/G1) [5]
  remaining activity at 30 µM: 94%
AMPK(A2/B2/G1) [6]
  % Enzyme Activity (relative to DMSO controls): 89.86%
TRKA-TPR
  % Enzyme Activity (relative to DMSO controls): 101.99%
TRKA-TPR; [10]
  remaining activity at 30 µM: 106%
PI3Kg (p110g)
  % Enzyme Activity (relative to DMSO controls): 85.15%
PI3Kg (p110g); [10]
  remaining activity at 30 µM: 87.4%
